The values below come from patent US12331048B2, “Pyrido-[3,4-d]pyridazine amine derivatives useful as NLRP3 inhibitors” (Ventus Therapeutics U.S., Inc., priority 2022, dated 2025).

The target in one data set is T1, NLRP3 (Homo sapiens, UniProt Q96P20).
T1 construct: endogenous in cells
In words: Human whole blood (hWB) NLRP3 assay. The format is cell-based. Conditions: LPS priming 1 μg/ml, ATP activation, read-out: hWB IC50 (raw activity data). The procedure:
Heparin lithium coated tubes were used to collect blood from volunteers. Blood samples were distributed on 96 well plates using 90 μl per well. Priming was performed by adding 5 μl of LPS (O26:B6; Sigma L-2654) at a final concentration of 1 μg/ml for 4.5 hours in a humidified incubator with 37° C., 5% CO2. Thirty minutes prior to NLRP3 activation, 5 μl of a 20× compound solution or vehicle (2% DMSO) was added to each well and plates were incubated on a shaker (450 rpm) in a humidified incubator with 37° C., 5% CO2. Activation was then performed by adding 3.3 μl of a 31×ATP solution per well. At the end of the 30 minutes stimulation, the plates were centrifuged (800 g, 10 min. room temperature) and the plasma from each well was frozen at −80° C. […] levels in the supernatant were analyzed using a mesoscale discovery assay (MSD K151TUK) according to the manufacturers' instructions. Human whole blood was drawn from healthy volunteers after obtaining written informed consent.
Table D assigns each compound a code for potency in the human whole blood (hWB) NLRP3 Assay: A or B. According to the code. […] The corresponding raw activity data is also included.

The nature of data set [1]: Brain levels (kp and kpu,u) after oral administration. It is filed as in vivo, CDI mice. The note with it: mice, 20 mpk PO; for Kp at 24 h / Kpu,u (unbound brain-to-plasma ratio): CDI, mouse, brain / plasma, po, 20 mg/kg; for Kp at 24 h: whole brain AUC over 24 h divided by plasma AUC; for Kpu,u (unbound brain-to-plasma ratio) / kpu,u (code): kp corrected with mouse plasma protein binding and mouse brain homogenate binding. The procedure: The in vivo total brain to plasma ratio was assessed in CDI mice after oral administration of the compound. Blood was collected at several timepoints up to 24 h, and transferred into plastic micro centrifuge tubes with EDTA-K2 as anticoagulant. Blood samples were centrifuged at 4000 g for 5 minutes at 4° C. to obtain plasma, then immediately frozen and stored at −75±15° C. prior to analysis. Animals were terminally anaesthetized with a rising concentration of CO2 gas at about 1 minute. At selected timepoints, whole brains were removed from the skull, rinsed in cold PBS to remove blood, dried with clean gauze, then frozen in liquid nitrogen and kept at −75±15° C. before analysis. At the time of analysis, brain samples were homogenized with PBS by tissue weight (g) to PBS volume (mL) ratio 1:3. Plasma and brain drug levels were quantified by LC/MS/MS on a AB Sciex Triple Quad 5500+ instrument, after separation on a HALO 160A ES-C18, 2.7 μm 2.1-50 mm column. Quantitation was performed using a calibration curve prepared in blank plasma or blank brain homogenate. The software WinNonlin (Phoenix™) was used for pharmacokinetic analysis from the concentrations versus time data, including the AUCinf and AUClast. The Kp ratio (total brain concentration over total plasma concentration) was calculated as (AUCtot,br)/(AUCtot,pl).
The unbound brain exposure was assessed as Kpuu, which is the free brain/free plasma concentration ratio (Cu,br/Cu,pl). The Cu,br/Cu,pl ratios were obtained from in vivo total brain to plasma ratios (Ctot,br/Ctot,pl) by using in vitro determined Fu,br and Fu,pl.
Plasma protein binding and brain homogenate protein binding were measured by equilibrium dialysis in a HTDialysis plate. The dialysis membranes were soaked in ultrapure water for 60 minutes to separate strips, then in 20% ethanol for 20 minutes, finally in dialysis buffer for 20 minutes. The dialysis set up was assembled according to the manufacturer's instruction. Each cell received 150 μL of plasma or brain homogenate spiked with 1 mM of compound, and dialyzed against an equal volume of dialysis buffer (PBS). The dialysis plate was sealed and incubated in an incubator at 37° C. with 5% CO2 at 100 rpm for 6 hours. At the end of incubation, compound concentration was measured in both chambers by LC-MS/MS on a Triple Quad™ 5500 from AB Inc after separation on a XSelect Hss T3 2.5μ (2.1×30 mm) column. Free fraction (Fu) was calculated as (Peak Area Ratio buffer chamber/Peak Area Ratio plasma chamber).
Kpuu was calculated as (AUCtot,br×Fu,br)/(AUCtot,pl×Fu,pl).
The below table also assigns each compound a code for kp and kpu,u values: A or B. According to the code. A represents a value of >0.3 and B represents a value of ≤0.3. […] The kpu,u was then calculated upon correcting this kp value with mouse plasma protein binding and mouse brain homogenates binding. A Kpu,u value >0.3 is brain penetrant, and Kpu,u value less than or equal to 0.3 is not brain penetrant. N.D.=not determined. The corresponding raw kp and kpu,u data is also included.

Like-named read-outs stand apart in the source and are kept apart here.

T1 sequence (Q96P20 whole entry): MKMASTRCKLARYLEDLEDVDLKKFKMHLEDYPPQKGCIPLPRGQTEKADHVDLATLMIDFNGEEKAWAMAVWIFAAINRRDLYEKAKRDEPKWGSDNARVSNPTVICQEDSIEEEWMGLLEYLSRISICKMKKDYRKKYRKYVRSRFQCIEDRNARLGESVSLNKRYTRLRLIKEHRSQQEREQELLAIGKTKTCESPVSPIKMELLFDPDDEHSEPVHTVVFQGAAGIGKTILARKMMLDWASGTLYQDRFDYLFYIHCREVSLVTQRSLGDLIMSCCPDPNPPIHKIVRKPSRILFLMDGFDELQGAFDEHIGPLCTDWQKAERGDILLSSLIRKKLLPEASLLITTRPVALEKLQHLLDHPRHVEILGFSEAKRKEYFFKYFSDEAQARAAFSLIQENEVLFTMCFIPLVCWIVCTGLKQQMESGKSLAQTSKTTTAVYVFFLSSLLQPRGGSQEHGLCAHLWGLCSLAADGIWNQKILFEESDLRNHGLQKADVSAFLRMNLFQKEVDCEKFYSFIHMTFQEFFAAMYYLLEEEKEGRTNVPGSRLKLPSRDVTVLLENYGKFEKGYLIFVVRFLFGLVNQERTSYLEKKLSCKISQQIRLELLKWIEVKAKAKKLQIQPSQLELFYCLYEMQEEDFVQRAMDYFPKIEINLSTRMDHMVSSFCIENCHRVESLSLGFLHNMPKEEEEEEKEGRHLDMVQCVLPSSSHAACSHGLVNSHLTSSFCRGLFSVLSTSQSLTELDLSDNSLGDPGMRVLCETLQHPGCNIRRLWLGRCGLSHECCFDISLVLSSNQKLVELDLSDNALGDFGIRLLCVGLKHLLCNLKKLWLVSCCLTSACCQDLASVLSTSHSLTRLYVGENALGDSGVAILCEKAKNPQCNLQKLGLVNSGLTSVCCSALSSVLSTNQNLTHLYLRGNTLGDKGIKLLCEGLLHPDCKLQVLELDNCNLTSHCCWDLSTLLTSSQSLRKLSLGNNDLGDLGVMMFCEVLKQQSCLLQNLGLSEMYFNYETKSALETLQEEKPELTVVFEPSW

For orientation: IC50 means the concentration that gives 50% inhibition. As usually defined, the Kp is tissue or fluid exposure divided by exposure in the circulation. As for `[2H]C([2H])([2H])OC(C)(C)CNc1nnc(-c2ccc(C(F)F)cc2O)c2ccncc12` [Compound 2, 5-(difluoromethyl)-2-(4-((2-(methoxy-d3)-2-methylpropyl)amino)pyrido[3,4-d]pyridazin-1-yl)phenol], the IC50 at NLRP3 was 160 nM. In data set [1] (read-out: kp (code)), the concentration ratio (Kp) at 24 h was not above 0.3. In data set [1] (read-out: kp (raw)), the partition ratio (Kp) at 24 h amounted to 0.24. In addition, in data set [1], the Kpu,u (unbound brain-to-plasma ratio) is 2.2 and the “kpu,u (code)” value is “A (A represents a value of >0.3)”.
The corresponding values for `Cc1ccc(-c2nnc(N[C@H]3CCC(C)(C)OC3)c3cnccc23)c(O)c1` (single isomer, unassigned) [Compound 10*] are 1400 nM, more than 0.3, 0.35, 0.51 and “A (A represents a value of >0.3)”.
The corresponding values for `Oc1cc(Cl)ccc1-c1nnc(N[C@H]2CCOC2)c2cnccc12` (single isomer, unassigned) [Compound 7*, reference compound] are 800 nM, not above 0.3, 0.13, 0.15 and “B (B represents a value of ≤0.3)”.
The corresponding values for `Cc1ccc(-c2nnc(N[C@H]3CCOCC3(C)C)c3cnccc23)c(O)c1` (single isomer, unassigned) [Compound 13] are 220 nM, more than 0.3, 0.6, 0.77 and “A (A represents a value of >0.3)”.
In the case of `C[C@H]1C[C@H](Nc2nnc(-c3ccc(Cl)cc3O)c3ccncc23)CCO1` (single isomer, unassigned) [Compound 25C*], the IC50 at NLRP3 was 1400 nM. In addition, the figures for the Kp at 24 h in data set [1] (read-out: kp (code)) and in data set [1] (read-out: kp (raw)) were more than 0.3 and 0.65, respectively. Further, the Kpu,u (unbound brain-to-plasma ratio) in data set [1] is 0.099. For the same compound, in data set [1], the “kpu,u (code)” value is “B (B represents a value of ≤0.3)”.
With `CC1(C)COC[C@@H]1Nc1nnc(-c2ccc(Cl)cc2O)c2ccncc12` (single isomer, unassigned) [Compound 1*], on NLRP3, the half-inhibitory concentration (IC50) was 1000 nM. The partition ratio (Kp) at 24 h was more than 0.3 in data set [1] (read-out: kp (code)) and 0.9 in data set [1] (read-out: kp (raw)). Also, in data set [1], the Kpu,u (unbound brain-to-plasma ratio) amounted to 0.31. Also, the “kpu,u (code)” value in data set [1] is listed as “A (A represents a value of >0.3)”.
The corresponding values for `Oc1cc(C(F)(F)F)ccc1-c1nnc(N[C@H]2COC3(CC3)C2)c2cnccc12` (single isomer, unassigned) [Compound 19] are 1400 nM, more than 0.3, 1.4, 0.81 and “A (A represents a value of >0.3)”.
The corresponding values for `C[C@@H]1C[C@@H](Nc2nnc(-c3ccc(Cl)cc3O)c3ccncc23)CCO1` (single isomer, unassigned) [Compound 25D*] are 1200 nM, more than 0.3, 1, 0.2 and “B (B represents a value of ≤0.3)”.
With `C[C@@H]1COCC[C@H]1Nc1nnc(-c2ccc(Cl)cc2O)c2ccncc12` (single isomer, unassigned) [Compound 18A*], at NLRP3, the IC50 is 1100 nM. Also, the Kp at 24 h in data set [1] (read-out: kp (code)) is more than 0.3; in data set [1] (read-out: kp (raw)), 0.73. For the same compound, in data set [1], the Kpu,u (unbound brain-to-plasma ratio) was 0.3. Moreover, the “kpu,u (code)” value in data set [1] is on record as “A (A represents a value of >0.3)”.
The corresponding values for `CC1(C)COCC[C@@H]1Nc1nnc(-c2ccc(Cl)cc2O)c2ccncc12` (single isomer, unassigned) [Compound 3*] are 190 nM, more than 0.3, 0.58, 2.2 and “A (A represents a value of >0.3)”.
